Molecular target: Beta-secretase 1 (Homo sapiens, UniProt P56817)
Test: Inhibition of BACE1

Chain of Beta-secretase 1 (P56817 whole entry): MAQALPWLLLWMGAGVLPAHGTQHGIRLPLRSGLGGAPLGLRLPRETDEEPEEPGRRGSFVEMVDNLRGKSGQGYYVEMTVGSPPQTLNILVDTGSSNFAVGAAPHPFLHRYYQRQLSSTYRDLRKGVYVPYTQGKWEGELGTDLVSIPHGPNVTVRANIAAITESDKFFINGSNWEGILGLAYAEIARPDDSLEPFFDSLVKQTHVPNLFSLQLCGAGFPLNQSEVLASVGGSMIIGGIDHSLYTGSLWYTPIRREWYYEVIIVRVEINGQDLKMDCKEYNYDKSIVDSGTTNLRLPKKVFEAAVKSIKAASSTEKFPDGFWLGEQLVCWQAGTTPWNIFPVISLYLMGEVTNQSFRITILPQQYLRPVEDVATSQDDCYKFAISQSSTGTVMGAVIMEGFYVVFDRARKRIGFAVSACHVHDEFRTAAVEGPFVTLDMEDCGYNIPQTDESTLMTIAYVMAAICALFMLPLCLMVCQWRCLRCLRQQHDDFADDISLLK

Compound	IC50 [µM]
CC(C)C[C@H](NC(=O)[C@@H](NC(=O)[C@@H](N)CNC(=O)c1nnn[nH]1)C(C)C)C(=O)NC[C@](O)(CCc1ccccc1)C(=O)Nc1cccc(C(=O)O)c1	0.19
CC(C)C[C@H](NC(=O)[C@@H](NC(=O)[C@@H](N)CNC(=O)c1nn[nH]n1)C(C)C)C(=O)NCC(O)(CCc1ccccc1)C(=O)Nc1cccc(C(=O)O)c1 (stereo partly specified)	0.4
CC(C)C[C@H](NC(=O)[C@@H](NC(=O)[C@@H](N)CNC(=O)c1nn[nH]n1)C(C)C)C(=O)NC[C@@](O)(CCc1ccccc1)C(=O)Nc1cccc(C(=O)O)c1	1.4
CC(C)[C@H](NC(=O)[C@@H](N)CNC(=O)c1nn[nH]n1)C(=O)N[C@@H](CC1CCCCC1)C(=O)NCC(O)(Cc1ccccc1)C(=O)Nc1cccc(C(=O)O)c1 (stereo partly specified)	0.68
CC(C)C[C@H](NC(=O)[C@H](Cc1ccccc1)NC(=O)[C@@H](N)CNC(=O)c1nnn[nH]1)C(=O)NC[C@](O)(CCc1ccccc1)C(=O)Nc1cccc(C(=O)O)c1	> 10
CC(C)C[C@H](NC(=O)[C@H](Cc1ccccc1)NC(=O)[C@@H](N)CNC(=O)c1nnn[nH]1)C(=O)NC[C@@](O)(CCc1ccccc1)C(=O)Nc1cccc(C(=O)O)c1	> 10
CCCC[C@H](NC(=O)[C@@H](N)CNC(=O)c1nnn[nH]1)C(=O)N[C@@H](CC(C)C)C(=O)NCC(O)(CCc1ccccc1)C(=O)Nc1cccc(C(=O)O)c1 (stereo partly specified)	> 10
CC(C)C[C@H](NC(=O)[C@H](CC(C)C)NC(=O)[C@@H](N)CNC(=O)c1nnn[nH]1)C(=O)NCC(O)(CCc1ccccc1)C(=O)Nc1cccc(C(=O)O)c1 (stereo partly specified)	> 10
CC(C)C[C@H](NC(=O)C[C@@H](NC(=O)[C@@H](N)CNC(=O)c1nnn[nH]1)C(C)C)C(=O)NCC(O)(CCc1ccccc1)C(=O)Nc1cccc(C(=O)O)c1 (stereo partly specified)	> 10
CC(C)C[C@H](NC(=O)[C@@H](NC(=O)[C@H](N)CNC(=O)c1nnn[nH]1)C(C)C)C(=O)NCC(O)(CCc1ccccc1)C(=O)Nc1cccc(C(=O)O)c1 (stereo partly specified)	> 10
CC(C)C[C@H](NC(=O)[C@@H](NC(=O)[C@@H](N)CN)C(C)C)C(=O)NCC(O)(CCc1ccccc1)C(=O)Nc1cccc(C(=O)O)c1 (stereo partly specified)	> 10
CC(C)C[C@H](NC(=O)[C@@H](NC(=O)[C@@H](CO)NC(=O)c1nn[nH]n1)C(C)C)C(=O)NCC(O)(CCc1ccccc1)C(=O)Nc1cccc(C(=O)O)c1 (stereo partly specified)	> 10
CC(C)C[C@H](NC(=O)[C@@H](NC(=O)[C@H](CO)NC(=O)c1nnn[nH]1)C(C)C)C(=O)NCC(O)(CCc1ccccc1)C(=O)Nc1cccc(C(=O)O)c1 (stereo partly specified)	> 10
CC(C)C[C@H](NC(=O)[C@@H](NC(=O)[C@@H](CO)NC(=O)c1nnn[nH]1)C(C)C)C(=O)NCCC(=O)Nc1cccc(C(=O)O)c1	> 10
CC(C)C[C@H](NC(=O)[C@@H](NC(=O)[C@@H](N)CNC(=O)c1nnn[nH]1)C(C)C)C(=O)O	4.4

More lines, now with the values ahead:

IC50 [µM]	Compound
0.43	CC(C)C[C@H](NC(=O)[C@@H](NC(=O)[C@@H](N)CNC(=O)c1nnn[nH]1)C(C)C)C(=O)NCC(O)(Cc1ccccc1)C(=O)Nc1cccc(C(=O)O)c1 (stereo partly specified)
0.44	CC(C)C[C@H](NC(=O)[C@@H](NC(=O)[C@@H](N)CNC(=O)c1nn[nH]n1)C(C)C)C(=O)NCC(O)C(=O)Nc1cccc(C(=O)O)c1 (stereo partly specified)
3	CC(C)[C@H](NC(=O)[C@@H](NC(=O)[C@@H](N)CNC(=O)c1nnn[nH]1)C(C)C)C(=O)NCC(O)C(=O)Nc1cccc(C(=O)O)c1 (stereo partly specified)
> 10	CC(C)C[C@H](NC(=O)[C@@H](NC(=O)[C@@H](N)CN)C(C)C)C(=O)NCC(O)C(=O)Nc1cccc(C(=O)O)c1 (stereo partly specified)
> 10	CC(C)C[C@H](NC(=O)[C@@H](NC(=O)[C@H](N)CO)C(C)C)C(=O)NCC(O)C(=O)Nc1cccc(C(=O)O)c1 (stereo partly specified)
> 10	CC(C)C[C@H](NC(=O)[C@@H](NC(=O)[C@H](N)CNC(=O)c1nn[nH]n1)C(C)C)C(=O)NCC(O)C(=O)Nc1cccc(C(=O)O)c1 (stereo partly specified)
> 10	CC(C)[C@H](NC(=O)[C@@H](NC(=O)[C@@H](CO)NC(=O)c1nn[nH]n1)C(C)C)C(=O)NCC(O)C(=O)Nc1cccc(C(=O)O)c1 (stereo partly specified)
0.87	CC(C)C[C@H](NC(=O)[C@@H](NC(=O)[C@@H](N)CNC(=O)c1nnn[nH]1)C(C)C)C(=O)NCCC(=O)Nc1cccc(C(=O)O)c1
> 10	CC(C)C[C@H](NC(=O)[C@@H](NC(=O)[C@H](N)CNC(=O)c1nnn[nH]1)C(C)C)C(=O)NCCC(=O)Nc1cccc(C(=O)O)c1
6.1	CC(C)C[C@H](NC(=O)[C@@H](NC(=O)[C@@H](N)CNC(=O)c1nn[nH]n1)C(C)C)C(=O)NCC(O)C(=O)O (stereo partly specified)
> 10	CC(C)C[C@H](NC(=O)[C@@H](NC(=O)[C@H](CO)NC(=O)c1nnn[nH]1)C(C)C)C(=O)NCCC(=O)Nc1cccc(C(=O)O)c1
